Assay results as given in patent publication US20040029130A1, “Drug screening systems and assays” (priority 2000, published 2004).
“Also recorded” adds a separate entry of the source. Each block holds one molecule with its values, some of them ahead of it.

Key:
[1] = system: non-homologous end-joining (NHEJ) of DNA by PC-C (Ku70/80, DNA-PKcs, XRCC4, DNA ligase IV); assay: DNA end-joining (NHEJ) complementation assay with HeLa fraction PC-C; type: biochemical, human; details: for ability to stimulate DNA end-joining (NHEJ) by PC-C: FIG. 4C, 6A, 8; for stimulation of NHEJ by PC-C relative to IP6: FIG. 8; for concentration that saturates the NHEJ system / Kd: components derived from humans; for Kd: crude estimate, read-out: estimate of the Kd in the NHEJ system
Experimental: Fraction PC-C was dialyzed for 2 hours against L buffer (20 mM Tris-HCl pH 8.0, 25 mM KOAc, 0.5 mM EDTA, 10% glycerol, 1 mM DTT) and stored at −80° C.
End joining reactions (10 μl) were carried out in 50 mM HEPES pH 8.0, 40 mM KOAc, 0.5 mM Mg(OAc)2, 1 mM ATP, 1 mM DTT, 0.1 mg/ml BSA, contained 2-3 μl (3-5 μg) of PC-C and HindIII-linearized 5′-^32P-labeled pDEA7Z DNA (10 ng). Incubation was for 1 hour at 37° C. ^32P-labeled DNA products were deproteinized and analyzed by electrophoresis through 0.6% agarose gels followed by autoradiography. Quantification of joining efficiency was carried out by phosphorimaging and the data are presented as (% total ends-joinedsample)−(% total ends-joinedPC-C) unless otherwise stated. For assays of inositol phosphates, aqueous solutions were added directly to the end-joining reactions. For the screening of column fractions; 0.5-1 μl of diluted (in L buffer) or undiluted column fractions were added

Ku 70/80 heterodimer = biological target: T1, Ku 70/80 heterodimer (Homo sapiens, UniProt P12956+P13010); assay: Gel filtration binding and competition analysis with purified Ku 70/80; details: for binding by Ku 70/80 heterodimer: gel filtration, FIG. 10-12; for loss in 3H-IP6 binding by Ku (competition): one molar equivalent of competitor
T1 construct: made in house
Experimental: (§1) Superdex 200 gel filtration, 50 μl fractions, scint. counting 20 μl/fraction 100 nM ^3H-IP6, 100 nM Ku, 100 nM DNA ([…]), 100 nM PKcs. Running buffer. 50 mM HEPES, pH 8.0, 40 mM KOAc, 10% Glycerol, 0.1 M KCl, 1 mM DTT.
(§2) Ku 70/80 and DNA-PKcs were purified to homogeneity and used to examine the binding of IP6 by DNA-PK ^3H-IP6 was used in these binding experiments and the curves presented in FIG. 10 represent the distribution of ^3H-IP6 along a gel filtration column under various conditions. ^3H-IP6 observed in a peak below 17 kD represents unbound ^3H-IP6. In the presence of purified Ku 70/80 (±DNA-PKcs) ^3H-IP6 elutes early from the column near the 150 MW point. […] It is believed that DNA-PK assembles on DNA and that in the absence of DNA that Ku and DNA-PKcs, are separate in solution. The addition of DNA to the Ku-^3H-IP6 complex results in a shift in the elution profile from the gel filtration column—the peak is broader (possibly owing to the mobility of the DNA) and has an earlier start point. […] Finally, the addition of DNA-PKcs, to the Ku-IP6DNA complex results in an additional increase in mobility along the gel filtration column. The species appears very large—near 670 kD—which is consistent with it containing Ku 70/80, ^3H-IP6, DNA-PKcs and DNA.
The specificity of IP6 binding by Ku was examined by competition analysis (FIG. 13) using IP3, IP6 and IP7. […] These findings may be extended to postulate that while IP6 is bound by Ku, that the stimulatory effect of IP6 on NHEJ probably results from additional interactions that may be regulated by formation of the IP6-Ku complex.

DNA-PK = biological target: T2, DNA-PK (Homo sapiens, UniProt P12956+P13010); assay: Gel filtration analysis of 3H-inositol phosphate binding by DNA-PK; details: for binding by DNA-PK: gel filtration, 100 nM 3H-ligand, FIG. 7
T2 construct: purchased Promega
Experimental: Binding reactions (55 μl) were carried out in 25 mM HEPES pH 7.5, 50 mM KCl, 10 mM MgCl2, 1 mM DTT, 10% glycerol, 0.1% NP-40 with 5000 units of DNA-PK (Promega) or 1.8 mg/ml of protein size standards for gel filtration (BioRad) and 100 nM ^3H-IP6 or ^3H-IP3 at 4° C. for 30 min. Complexes were resolved on a Superose 12 PC3.2/30 column run in 50 mM HEPES pH 8.0, […], 0.1M KCl, 10% glycerol, 1 mM DTT at 40 μl/min. 50 μl fractions were collected; 20 μl samples of each fraction were used for ^3H scintilation counting (10 min/sample in 5 ml EcoscintA) and 10 μl were assayed for DNA-PK kinase activity using the SignaTECT DNA-PK assay system (Promega).
The specificity of IP6 recognition by DNA-PK was assessed by competition trials using inositol hexasulphate (IS6). […] Addition of DNA-PK results in an increase in the mobility of the ^3H-IP6 indicating complex formation. IS6, presented in 10- and 100-fold molar excess have no effect on the amount of ^3H-IP6 bound by DNA-PK.

T4 DNA ligase = biological target: T3, T4 DNA ligase (Enterobacteria phage T4, UniProt P00970); assay: T4 DNA ligation assay; type: biochemical; details: 2 μM IP6, T4 DNA ligase 0.1 u/μl, FIG. 6B
T3 construct: purchased NEB
T3 sequence (P00970 1-487): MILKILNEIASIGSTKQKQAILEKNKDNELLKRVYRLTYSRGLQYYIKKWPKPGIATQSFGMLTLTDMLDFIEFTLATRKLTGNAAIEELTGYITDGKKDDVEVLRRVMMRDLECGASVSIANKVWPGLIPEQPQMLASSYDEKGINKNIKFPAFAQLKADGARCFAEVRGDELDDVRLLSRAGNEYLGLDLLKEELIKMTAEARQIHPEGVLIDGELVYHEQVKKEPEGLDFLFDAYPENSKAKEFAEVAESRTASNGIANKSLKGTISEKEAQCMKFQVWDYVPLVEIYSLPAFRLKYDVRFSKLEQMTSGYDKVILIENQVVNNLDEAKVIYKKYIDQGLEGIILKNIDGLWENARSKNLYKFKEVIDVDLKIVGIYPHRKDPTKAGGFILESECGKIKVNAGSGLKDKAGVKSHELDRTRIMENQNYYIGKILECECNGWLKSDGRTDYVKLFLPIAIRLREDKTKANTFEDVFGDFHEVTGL
Experimental: Reactions (10 μl) containing T4 DNA ligase (NEB) were carried out in 1×T4 DNA ligase buffer (NEB) at 25° C. in the presence and absence of inositol phosphates. Reactions were stopped, deproteinized and the products analyzed by agarose gel electrophoresis.

skin cancer development = details: mice, given orally; cited from earlier work
DNA-PKcs = biological target: T4, DNA-PKcs (Homo sapiens, UniProt P78527); assay: Gel filtration binding with purified DNA-PKcs; details: absence of DNA, FIG. 10-11
T4 construct: made in house
Experimental: as §1, §2

phosphatases = details: cited from earlier work

T1 sequence (P12956 whole entry): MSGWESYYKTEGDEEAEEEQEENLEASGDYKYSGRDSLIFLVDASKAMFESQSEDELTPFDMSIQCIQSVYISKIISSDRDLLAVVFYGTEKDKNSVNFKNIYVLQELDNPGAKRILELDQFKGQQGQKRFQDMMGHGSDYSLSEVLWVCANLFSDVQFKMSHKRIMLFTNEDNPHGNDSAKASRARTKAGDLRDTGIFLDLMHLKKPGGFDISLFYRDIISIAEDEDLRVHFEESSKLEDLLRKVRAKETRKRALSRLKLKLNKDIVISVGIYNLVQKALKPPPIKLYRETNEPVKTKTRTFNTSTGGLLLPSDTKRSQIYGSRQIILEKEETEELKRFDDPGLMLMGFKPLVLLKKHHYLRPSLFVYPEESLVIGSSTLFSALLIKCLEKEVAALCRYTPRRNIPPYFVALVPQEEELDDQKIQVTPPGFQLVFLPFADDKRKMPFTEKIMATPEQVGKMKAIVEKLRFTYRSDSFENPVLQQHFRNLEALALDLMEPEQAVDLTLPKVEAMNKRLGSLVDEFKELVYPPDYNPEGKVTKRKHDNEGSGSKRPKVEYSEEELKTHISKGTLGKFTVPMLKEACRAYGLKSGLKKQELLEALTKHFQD
T1 sequence (P13010 whole entry): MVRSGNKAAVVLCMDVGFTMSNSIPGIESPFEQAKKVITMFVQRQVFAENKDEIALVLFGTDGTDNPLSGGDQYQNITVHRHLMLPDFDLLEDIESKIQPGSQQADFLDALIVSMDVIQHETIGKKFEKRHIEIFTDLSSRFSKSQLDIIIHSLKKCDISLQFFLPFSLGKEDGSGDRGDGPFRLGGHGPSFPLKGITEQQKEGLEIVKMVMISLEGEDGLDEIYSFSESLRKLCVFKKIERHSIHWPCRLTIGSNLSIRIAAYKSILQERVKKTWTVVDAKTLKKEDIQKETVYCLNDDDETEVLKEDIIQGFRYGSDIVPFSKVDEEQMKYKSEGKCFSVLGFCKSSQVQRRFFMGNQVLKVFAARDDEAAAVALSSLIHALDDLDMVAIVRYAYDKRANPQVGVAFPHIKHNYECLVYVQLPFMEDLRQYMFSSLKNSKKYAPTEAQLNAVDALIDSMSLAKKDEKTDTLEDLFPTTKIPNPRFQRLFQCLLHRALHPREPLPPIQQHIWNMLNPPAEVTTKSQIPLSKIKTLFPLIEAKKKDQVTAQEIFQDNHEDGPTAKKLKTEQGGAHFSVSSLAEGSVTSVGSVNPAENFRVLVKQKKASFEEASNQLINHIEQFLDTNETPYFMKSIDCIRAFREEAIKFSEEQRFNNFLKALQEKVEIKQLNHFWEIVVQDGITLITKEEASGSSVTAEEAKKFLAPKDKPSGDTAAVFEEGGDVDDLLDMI
T2 sequence (P12956 2-609 limits assumed): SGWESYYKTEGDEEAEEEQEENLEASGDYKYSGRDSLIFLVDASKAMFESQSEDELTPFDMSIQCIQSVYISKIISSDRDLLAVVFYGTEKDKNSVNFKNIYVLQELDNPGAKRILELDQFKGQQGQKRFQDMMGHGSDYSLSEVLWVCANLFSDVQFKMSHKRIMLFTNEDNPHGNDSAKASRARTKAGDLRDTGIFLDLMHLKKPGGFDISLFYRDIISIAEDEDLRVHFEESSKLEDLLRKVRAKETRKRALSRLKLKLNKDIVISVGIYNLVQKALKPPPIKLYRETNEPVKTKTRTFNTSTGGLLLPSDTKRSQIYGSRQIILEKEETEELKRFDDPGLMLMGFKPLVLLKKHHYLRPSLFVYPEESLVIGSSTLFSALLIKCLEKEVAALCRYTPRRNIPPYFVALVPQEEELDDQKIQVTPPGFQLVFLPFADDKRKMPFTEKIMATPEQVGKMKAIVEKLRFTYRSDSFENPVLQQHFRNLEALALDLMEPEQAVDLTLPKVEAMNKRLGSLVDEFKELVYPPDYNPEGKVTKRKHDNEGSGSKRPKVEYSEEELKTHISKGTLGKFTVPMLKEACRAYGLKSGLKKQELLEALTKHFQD
T2 sequence (P13010 2-732 limits assumed): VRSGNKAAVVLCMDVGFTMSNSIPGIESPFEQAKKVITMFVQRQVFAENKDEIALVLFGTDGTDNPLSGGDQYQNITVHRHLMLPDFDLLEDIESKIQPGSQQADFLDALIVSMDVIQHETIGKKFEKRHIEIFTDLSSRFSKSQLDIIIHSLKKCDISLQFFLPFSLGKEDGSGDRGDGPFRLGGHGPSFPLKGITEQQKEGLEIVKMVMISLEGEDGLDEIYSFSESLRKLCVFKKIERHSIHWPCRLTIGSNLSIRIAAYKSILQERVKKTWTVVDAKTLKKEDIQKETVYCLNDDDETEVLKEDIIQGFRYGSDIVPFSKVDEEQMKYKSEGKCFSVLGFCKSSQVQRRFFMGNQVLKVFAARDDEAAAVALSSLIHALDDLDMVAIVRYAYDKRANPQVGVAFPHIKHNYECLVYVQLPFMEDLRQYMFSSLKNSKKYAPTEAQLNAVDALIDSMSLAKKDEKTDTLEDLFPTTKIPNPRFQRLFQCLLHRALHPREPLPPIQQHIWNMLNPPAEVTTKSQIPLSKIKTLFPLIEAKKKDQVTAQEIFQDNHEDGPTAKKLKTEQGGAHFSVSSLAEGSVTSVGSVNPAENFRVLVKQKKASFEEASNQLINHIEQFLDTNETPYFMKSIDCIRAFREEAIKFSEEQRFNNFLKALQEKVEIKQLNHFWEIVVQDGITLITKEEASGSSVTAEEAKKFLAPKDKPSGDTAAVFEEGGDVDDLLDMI

- ability to stimulate DNA end-joining (NHEJ) by PC-C [1]: do stimulate NHEJ by PC-C
- stimulation of NHEJ by PC-C relative to IP6 [1]: approximately 10 fold
Molecule: O=P(O)(O)O[C@H]1[C@@H](OP(=O)(O)O)[C@@H](OP(=O)(O)O)[C@H](OP(=O)(O)OP(=O)(O)O)[C@@H](OP(=O)(O)O)[C@@H]1OP(=O)(O)O [IP7-pp6, myo-6-diphosphoinositol 1,2,3,4,5-pentakisphosphate]

Molecule: O=P(O)(O)OC1[C@@H](OP(=O)(O)O)[C@H](OP(=O)(O)O)C(OP(=O)(O)OP(=O)(O)O)[C@H](OP(=O)(O)O)[C@H]1OP(=O)(O)O (stereo partly drawn) [IP7, diphosphoinositol pentakisphosphate]
- binding by Ku 70/80 heterodimer (Ku 70/80 heterodimer): bind
- loss in 3H-IP6 binding by Ku (competition) (Ku 70/80 heterodimer; FIG. 13): ~50%
- binding by DNA-PK (DNA-PK): binds
- stimulation of NHEJ by PC-C relative to IP6 [1]: 10 fold
- concentration that saturates the NHEJ system [1]: 1 µM
- Kd [1]: ~100 µM

Molecule: O=P(O)(O)OC1C(OP(=O)(O)O)C(OP(=O)(O)O)C(OP(=O)(O)O)C(OP(=O)(O)O)C1OP(=O)(O)O (stereo not drawn) [IP6, myo-inositol 1,2,3,4,5,6-hexakisphosphate]
- effect on efficiency of ligation by T4 DNA ligase (T4 DNA ligase): unaffected; also recorded: no effect
- effect on skin cancer development (skin cancer development): reduces initiation of skin cancer development but not its promotion
- interaction with DNA-PKcs (DNA-PKcs): does not interact
- concentration at which it functions as a phosphatase inhibitor (phosphatases): ≥ 10 µM
- binding by Ku 70/80 heterodimer (Ku 70/80 heterodimer): bind
- binding by Ku 70/80 heterodimer (Ku 70/80 heterodimer; listed as 3H-IP6): binds
- loss in 3H-IP6 binding by Ku (competition) (Ku 70/80 heterodimer; FIG. 13): ~50%
- binding by DNA-PK (DNA-PK): capable of binding; also recorded: binds
- low concentration at which end-joining can be stimulated (discussion) [1]: 100 µM
- concentration of maximal stimulation of end-joining by PC-C ([1]; FIG. 4B): 1 µM
- concentration at which end-joining by PC-C is stimulated ([1]; FIG. 4B, commercially available IP6): ~100 nM
- ability to stimulate DNA end-joining (NHEJ) by PC-C [1]: most effective inositol phosphate compound of those tested; also recorded: stimulated end-joining by PC-C; also recorded: stimulate NHEJ of DNA
- concentration that saturates the NHEJ system [1]: 10 µM
- Kd [1]: ~1 µM

Molecule: O=P(O)(O)OC1[C@H](O)[C@H](OP(=O)(O)O)C(OP(=O)(O)O)[C@H](OP(=O)(O)O)[C@H]1O (stereo partly drawn) [IP4, D-myo-inositol 1,3,4,5-tetrakisphosphate]
- ability to stimulate DNA end-joining (NHEJ) by PC-C [1]: able to stimulate end-joining, but the efficiency of this stimulation was reduced relative to IP6; also recorded: able to stimulate end-joining, though to a lesser extent; also recorded: stimulate NHEJ of DNA

- ability to stimulate DNA end-joining (NHEJ) by PC-C [1]: do stimulate NHEJ by PC-C
- stimulation of NHEJ by PC-C relative to IP6 [1]: approximately 10 fold
Molecule: O=P(O)(O)O[C@H]1[C@@H](OP(=O)(O)O)[C@H](OP(=O)(O)O)[C@@H](OP(=O)(O)OP(=O)(O)O)[C@H](OP(=O)(O)O)[C@H]1OP(=O)(O)O [IP7 pp5, myo-5-diphosphoinositol 1,2,3,4,6-pentakisphosphate]

Molecule: O=P(O)(O)O[C@@H]1[C@@H](OP(=O)(O)O)[C@H](OP(=O)(O)O)[C@H](O)[C@H](OP(=O)(O)O)[C@H]1OP(=O)(O)O [IP5, myo-inositol 1,3,4,5,6-pentakisphosphate]
- ability to stimulate DNA end-joining (NHEJ) by PC-C [1]: able to stimulate end-joining, but the efficiency of this stimulation was reduced relative to IP6; also recorded: able to stimulate end-joining, though to a lesser extent; also recorded: stimulate NHEJ of DNA

- effect on 3H-IP6 binding by Ku (competition) (Ku 70/80 heterodimer; 3-fold molar excess of competitor, FIG. 13): no effect
- binding by DNA-PK (DNA-PK): not
- binding by DNA-PK (DNA-PK; listed as 3H-IP3): not altered by the presence of DNA-PK
- ability to stimulate DNA end-joining (NHEJ) by PC-C ([1]; listed as myo-inositol 1,4,5-trisphosphate): inhibit end-joining
Molecule: myo-inositol 1,4,5-trisphosphate [IP3]
- ability to stimulate DNA end-joining (NHEJ) by PC-C [1]: inhibitory; also recorded: does not stimulate NHEJ

- ability to stimulate DNA end-joining (NHEJ) by PC-C [1]: unable to stimulate end-joining
Molecule: O=S(=O)(O)OC1C(OS(=O)(=O)O)C(OS(=O)(=O)O)C(OS(=O)(=O)O)C(OS(=O)(=O)O)C1OS(=O)(=O)O (stereo not drawn) [IS6, inositol hexasulphate]
- effect on the amount of 3H-IP6 bound by DNA-PK (competition) (DNA-PK; 10- and 100-fold molar excess, FIG. 9): does not compete; also recorded: no effect
